# Test results taken from patent US9475840B2, “Protease-resistant compounds useful as shuttles through the blood-brain barrier and shuttle-cargo constructs” (UNIVERSITAT DE BARCELONA, priority 2012, dated 2016).
# Read-outs that look alike come from different tables or passages of the source. Where a SMILES comes first, the peptide text is derived from it. [ ]: non-standard residue; d: D form. Quantum Dot = not defined here
# What was measured:
# [1] = Stability of the shuttle in human serum; settings: for half-life: human, serum
# Procedure: At a range of times, 50 μL aliquots were collected to which methanol was added in order to precipitate the serum proteins. The samples were centrifuged, filtered and analysed by HPLC to determine the degree of degradation of the BBB-shuttle
# [2] = system: co-culture of brain endothelial cells and astrocytes; test: Transport across the BBB, in vitro co-culture cell assay (transwell); settings: — = not detected in acceptor compartment; for Transport (%) (2 h): percentage of transport after a 2 hours assay; for Papp (×10^6) cm/s: apparent permeability, 2 h at 37° C., Ringer-HEPES buffer pH 7.4, triplicate, 50 μM or 0.75 nM (particles)
# Source text: (§1) The evaluation method chosen to test the compounds of formula (I) and (II) of the invention was a cell-based assay consisting of a co-culture of brain endothelial cells and astrocytes, which allows to evaluate or to predict the transport of compounds through the BBB. […] Under these conditions endothelial cells are able to reach the confluence mimicking the BBB. […] Is commonly used model for permeation studies and toxicity of compounds across the BBB.
# (§2) The co-culture assay was used to determine the capacity of the constructs cargo-shuttle to cross the BBB. […] The permeability tests were performed in Ringer-HEPES buffer at pH 7.4. The compound of interest was dissolved in the buffer to the desired concentration.
# (§3) Once the endothelial cells were confluent on the filters (transwells) these were washed with Ringer-HEPES buffer. The acceptor well was filled with 800 μL of Ringer-HEPES buffer and the donor well with 200 μL of the solution of the compound to be studied. The system was incubated at 37° C. and 5% CO2 for 2 h. After that time the content of the acceptor and donor compartments were analyzed by HPLC, ICP or fluorescence measurements (depending on cargo anchored to the shuttle). Transport was also confirmed by mass spectrometry MALDI-TOF.
# (§4) The apparent permeability was calculated using the following equation: Papp=(dQ/dt)*(1/A)*(1/C0)(cm/s)
# (§5) Where (dQ/dt) is the amount of compound present in the compartment acceptor function of time (nmol/s). A is the area of the filter (cm2) and C0 is the initial concentration of the compound applied in the donor compartment (nmol/mL).
# (§6) The values of permeability equal to or higher than 1×10-6 cm/s are considered exceptionally good, and values equal to or higher than 0.1×10-6 cm/s are considered good.
# [3] = as above; settings: pH 7.4
# Source text: as §1, §2, §3, §4, §5, §6
# [4] = system: co-culture of brain endothelial cells and astrocytes
# Source text: as §1, §2, §3, §4, §5, §6
compound,measurement,setting,value
"CSCC[C@@H](NC(=O)[C@@H](Cc1c[nH]c2ccccc12)NC(=O)[C@@H](CO)NC(=O)[C@H]1CCCN1C(=O)[C@H](NC(=O)[C@@H](Cc1c[nH]c2ccccc12)NC(=O)[C@H]1CCCN1)C(C)C)C(=O)N1CCC[C@@H]1C(=O)N1CCC[C@@H]1C(=O)N[C@H](CCCNC(=N)N)C(=O)N[C@H](Cc1c[nH]cn1)C(=O)N[C@@H](C(N)=O)[C@H](C)O [Example 1, H-D-Pro-D-Trp-D-Val-D-Pro-D-Ser-D-Trp-D-Met-D-Pro-D-Pro-D-Arg-D-His-D-Thr-NH2] (HELM PEPTIDE1{[dP].[dW].[dV].[dP].[dS].[dW].[dM].[dP].[dP].[dR].[dH].[dT].[am]}$$$$V2.0)",half-life,[1],> 24 h
same,Transport (%) (2 h),[2],25.1 ± 3%
same,Papp,[3],21.4 ± 2.1 ×10⁻⁶ cm/s
"CSCC[C@@H](NC(=O)[C@@H](Cc1c[nH]c2ccccc12)NC(=O)[C@@H](CO)NC(=O)[C@H]1CCCN1C(=O)[C@H](NC(=O)[C@@H](Cc1c[nH]c2ccccc12)NC(=O)[C@H]1CCCN1C(=O)[C@@H](N)Cc1ccc(O)c(O)c1)C(C)C)C(=O)N1CCC[C@@H]1C(=O)N1CCC[C@@H]1C(=O)N[C@H](CCCNC(=N)N)C(=O)N[C@H](Cc1c[nH]cn1)C(=O)N[C@@H](C(N)=O)[C@H](C)O [Example 8, L-dopa-D-Pro-D-Trp-D-Val-D-Pro-D-Ser-D-Trp-D-Met-D-Pro-D-Pro-D-Arg-D-His-D-Thr-NH2] (HELM PEPTIDE1{[N[C@@H](Cc1ccc(O)c(O)c1)C(=O)[*:2]].[dP].[dW].[dV].[dP].[dS].[dW].[dM].[dP].[dP].[dR].[dH].[dT].[am]}$$$$V2.0)",Transport (%) (2 h),[2],10.1 ± 1.3%
same,Papp,[3],8.46 ± 2.1 ×10⁻⁶ cm/s
"CSCC[C@@H](NC(=O)[C@@H](Cc1c[nH]c2ccccc12)NC(=O)[C@@H](CO)NC(=O)[C@H]1CCCN1C(=O)[C@H](NC(=O)[C@@H](Cc1c[nH]c2ccccc12)NC(=O)[C@H]1CCCN1C(=O)c1ccc2c(c1)C(=O)OC21c2ccc(O)cc2Oc2cc(O)ccc21)C(C)C)C(=O)N1CCC[C@@H]1C(=O)N1CCC[C@@H]1C(=O)N[C@H](CCCNC(=N)N)C(=O)N[C@H](Cc1c[nH]cn1)C(=O)N[C@@H](C(N)=O)[C@H](C)O [Example 9, 5(6)-Carboxyfluorescein-D-Pro-D-Trp-D-Val-D-Pro-D-Ser-D-Trp-D-Met-D-Pro-D-Pro-D-Arg-D-His-D-Thr-NH2] (HELM PEPTIDE1{[O=C1OC2(c3ccc(O)cc3Oc3cc(O)ccc32)c2ccc(C(=O)[*:2])cc21].[dP].[dW].[dV].[dP].[dS].[dW].[dM].[dP].[dP].[dR].[dH].[dT].[am]}$$$$V2.0)",Transport (%) (2 h),[2],17.1 ± 2.6%
same,Papp,[3],16.2 ± 1.3 ×10⁻⁶ cm/s
"CSCC[C@@H](NC(=O)[C@@H](Cc1c[nH]c2ccccc12)NC(=O)[C@@H](CO)NC(=O)[C@H]1CCCN1C(=O)[C@H](NC(=O)[C@@H](Cc1c[nH]c2ccccc12)NC(=O)[C@H]1CCCN1C(=O)[C@@H](CCCCN)NC(=O)[C@@H](CCCCN)NC(=O)[C@@H](CC(C)C)NC(=O)[C@H](NC(=O)[C@@H](Cc1ccc2ccccc2c1)NC(=O)[C@@H](Cc1ccccc1)N(C)C(=O)[C@@H](C)N)C(C)C)C(C)C)C(=O)N1CCC[C@@H]1C(=O)N1CCC[C@@H]1C(=O)N[C@H](CCCNC(=N)N)C(=O)N[C@H](Cc1c[nH]cn1)C(=O)N[C@@H](C(N)=O)[C@H](C)O [Example 12, H-D-Ala-D-NMePhe-D-Nal(2)-D-Val-D-Leu-D-Lys-D-Lys-D-Pro-D-Trp-D-Val-D-Pro-D-Ser-D-Trp-D-Met-D-Pro-D-Pro-D-Arg-D-His-D-Thr-NH2] (HELM PEPTIDE1{[dA].[CN([C@H](Cc1ccccc1)C(=O)[*:2])[*:1]].[O=C([C@@H](Cc1ccc2ccccc2c1)N[*:1])[*:2]].[dV].[dL].[dK].[dK].[dP].[dW].[dV].[dP].[dS].[dW].[dM].[dP].[dP].[dR].[dH].[dT].[am]}$$$$V2.0)",Transport (%) (2 h),[2],0.2 ± 0.04%
same,Papp,[3],0.14 ± 0.01 ×10⁻⁶ cm/s
"CSCC[C@@H](NC(=O)[C@H]1CCCN1C(=O)[C@H]1CCCN1C(=O)[C@@H](CCCNC(=N)N)NC(=O)[C@@H](Cc1c[nH]cn1)NC(=O)[C@H](N)[C@H](C)O)C(=O)N[C@H](Cc1c[nH]c2ccccc12)C(=O)N[C@H](CO)C(=O)N1CCC[C@@H]1C(=O)N[C@@H](C(=O)N[C@H](Cc1c[nH]c2ccccc12)C(=O)N1CCC[C@@H]1C(N)=O)C(C)C [compound 2, H-D-Thr-D-His-D-Arg-D-Pro-D-Pro-D-Met-D-Trp-D-Ser-D-Pro-D-Val-D-Trp-D-Pro-NH2, reference compound] (HELM PEPTIDE1{[dT].[dH].[dR].[dP].[dP].[dM].[dW].[dS].[dP].[dV].[dW].[dP].[am]}$$$$V2.0)",half-life,[1],> 24 h
same,Transport (%) (2 h),[2],11.7 ± 6.4%
same,Papp,[3],9.9 ± 1.6 ×10⁻⁶ cm/s
"Antibody Avastin partially reduced and trapped with Ellman's reagent: bevacizumab (Avastin) antibody cargo, partially reduced and trapped with Ellman's reagent",Papp (×10^6) cm/s,[2],0.054 ± 0.005 (×10^6) cm/s
same,Transport (%) (2 h),[2],0.064 ± 0.006%
H-Gly-D-Pro-D-Trp-D-Val-D-Pro-D-Ser-D-Trp-D-Met-D-Pro-D-Pro-D-Arg-D-His-D-Thr-NH2 [Example 2],Transport (%) (2 h),[4],22.3 ± 2.6%
same,Papp (×10^6) cm/s,[4]; pH 7.4,19.4 ± 1.8 (×10^6) cm/s
"H-THRPPMWSPVWP-NH2 [compound 1, H-L-Thr-L-His-L-Arg-L-Pro-L-Pro-L-Met-L-Trp-L-Ser-L-Pro-L-Val-L-Trp-L-Pro-NH2, reference compound]",Degradation / half-life time in human serum (in words),"[1]; 150 μM, 37° C., 90% human serum",rapidly degraded
same,half-life,[1],< 1 h
same,Transport (%) (2 h),[2],14.9 ± 2.5%
same,Papp,[3],12.5 ± 5.2 ×10⁻⁶ cm/s
"Quantum Dot-Gly-D-Pro-D-Trp-D-Val-D-Pro-D-Ser-D-Trp-D-Met-D-Pro-D-Pro-D-Arg-D-His-D-Thr-NH2 ({Quantum Dot}-G[dP][dW][dV][dP][dS][dW][dM][dP][dP][dR][dH][dT]-NH2; reading uncertain; also: quantum dot nanoparticle conjugate, printed as Quantum Dot-Gly-D-Pro-D-Trp-D-Val-D-Pro-D-Ser-D-Trp-D-Met-D-Pro-D-Pro-D-Arg-D-His-D-Thr-NH2) [Example 10]",Papp (×10^6) cm/s,[2],0.27 ± 0.03 (×10^6) cm/s
same,Transport (%) (2 h),[2],0.31 ± 0.02%
Rhodamine b-L-Lys(Antibody)-D-Pro-D-Trp-D-Val-D-Pro-D-Ser-D-Trp-D-Met-D-Pro-D-Pro-D-Arg-D-His-D-Thr-NH2 [Example 17],Papp (×10^6) cm/s,[2],0.16 ± 0.10 (×10^6) cm/s
Rhodamine b-L-Lys(Antibody)-D-Pro-D-Trp-D-Val-D-Pro-D-Ser-D-Trp-D-Met-D-Pro-D-Pro-D-Arg-D-His-D-Thr-NH2 [Example 18],Papp (×10^6) cm/s,[2],0.18 ± 0.05 (×10^6) cm/s
Rhodamine b-L-Lys(Antibody)-D-Pro-D-Trp-D-Val-D-Pro-D-Ser-D-Trp-D-Met-D-Pro-D-Pro-D-Arg-D-His-D-Thr-NH2 [Example 20],Papp (×10^6) cm/s,[2],0.36 ± 019 (×10^6) cm/s
nanoparticle superparamagnetic iron oxide (SPION)-Gly-D-Pro-D-Trp-D-Val-D-Pro-D-Ser-D-Trp-D-Met-D-Pro-D-Pro-D-Arg-D-His-D-Thr-NH2 ({SPION}-G[dP][dW][dV][dP][dS][dW][dM][dP][dP][dR][dH][dT]-NH2) [Example 11],Papp (×10^6) cm/s,[2],0.19 ± 0.07 (×10^6) cm/s
same,Transport (%) (2 h),[2],0.22 ± 0.05%
